In ChEMBL document CHEMBL6127071, “Albusamides A-G: Hydroxylated Fatty Amine Derivatives from the Deep-Sea-Derived Actinomycete Streptomyces albus 228DD-066 and Their Cytotoxic Activity” (2024):
Where a name gives a salt, the structure may show the parent alone.

Tests used:
Format in all cases: functional
WSUDLCL2 = assay: Growth inhibition of human WSUDLCL2 cells assessed as reduction in cell viability measured after 48 hrs by SRB method
RPMI 8402 = assay: Growth inhibition of human RPMI 8402 cells assessed as reduction in cell viability measured after 48 hrs by SRB method
HL-60 = assay: Growth inhibition of human HL-60 cells assessed as reduction in cell viability measured after 48 hrs by SRB method
Raji = assay: Growth inhibition of human Raji cells assessed as reduction in cell viability measured after 48 hrs by SRB method
MDA-MB-231 = assay: Growth inhibition of human MDA-MB-231 cells assessed as reduction in cell viability measured after 48 hrs by SRB method
[1] = Growth inhibition of human RPMI-1788 cells assessed as reduction in cell viability measured after 48 hrs by SRB method
NUGC-3 = assay: Growth inhibition of human NUGC-3 cells assessed as reduction in cell viability measured after 48 hrs by SRB method
HCT-15 = assay: Growth inhibition of human HCT-15 cells assessed as reduction in cell viability measured after 48 hrs by SRB method
U-266 = assay: Growth inhibition of human U-266 cells assessed as reduction in cell viability measured after 48 hrs by SRB method
K562 = assay: Growth inhibition of human K562 cells assessed as reduction in cell viability measured after 48 hrs by SRB method
ACHN = assay: Growth inhibition of human ACHN cells assessed as reduction in cell viability measured after 48 hrs by SRB method
[2] = Growth inhibition of human MRC9 cells assessed as reduction in cell viability measured after 48 hrs by SRB method
PC-3 = assay: Growth inhibition of human PC-3 cells assessed as reduction in cell viability measured after 48 hrs by SRB method
NALM-6 = assay: Growth inhibition of human NALM-6 cells assessed as reduction in cell viability measured after 48 hrs by SRB method
NCI-H23 = assay: Growth inhibition of human NCI-H23 cells assessed as reduction in cell viability measured after 48 hrs by SRB method

Compound | GI50 (HL-60) | GI50 (Raji) | GI50 (MDA-MB-231) | GI50 (HCT-15) | GI50 (K562) | GI50 (ACHN) | GI50 (PC-3) | GI50 (NCI-H23) | GI50 (WSUDLCL2) | GI50 (RPMI 8402) | GI50 [1] | GI50 (NUGC-3) | GI50 (U-266) | GI50 [2] | GI50 (NALM-6)
CC[C@@H](O)CCCCCCCCCNC(C)=O | > 30 µM | > 30 µM | 4.7 µM | 4.6 µM | > 30 µM | 5.7 µM | 5.1 µM | 5.3 µM | 14 µM | > 30 µM | 4.7 µM | 3900 nM | > 30 µM | 5.3 µM | > 30 µM
CC(=O)NCCCCCCCCC[C@@H](O)[C@H](C)O | > 30 µM | > 30 µM | 7.5 µM | 5.8 µM | > 30 µM | 6.4 µM | 7.3 µM | 7.2 µM | > 30 µM | > 30 µM | 17 µM | 6600 nM | > 30 µM | 6.7 µM | > 30 µM
CC(=O)NCCCCCCCCC[C@@H](O)[C@@H](C)O | > 30 µM | > 30 µM | 2 µM | 2.1 µM | > 30 µM | 1.6 µM | 1.7 µM | 1.9 µM | 8.3 µM | > 30 µM | 3.1 µM | 1400 nM | > 30 µM | 2 µM | > 30 µM
CC(=O)NCCCCCCCCCO | 15 µM | > 30 µM | 2.6 µM | 2.6 µM | 19 µM | 2.3 µM | 2 µM | 2.1 µM | 1.3 µM | 4.4 µM | 0.5 µM | 1500 nM | > 30 µM | 2.8 µM | 18 µM
CC(=O)CCCCCCCCCCNC(C)=O | > 30 µM | > 30 µM | > 30 µM | > 30 µM | > 30 µM | > 30 µM | > 30 µM | > 30 µM | > 30 µM | > 30 µM | > 30 µM | > 30000 nM | > 30 µM | > 30 µM | > 30 µM
CC(=O)NCCCCCCCCC[C@@H](O)CCO | > 30 µM | > 30 µM | 4.6 µM | 5.4 µM | 28 µM | 5.8 µM | 5.5 µM | 4.6 µM | 5.6 µM | 25 µM | 2.9 µM | 3000 nM | > 30 µM | 4 µM | > 30 µM
CC(=O)NCCCCCCCCCC[C@@H](C)O | > 30 µM | > 30 µM | 20 µM | 16 µM | > 30 µM | 23 µM | 19 µM | 22 µM | > 30 µM | > 30 µM | > 30 µM | 19000 nM | > 30 µM | 19 µM | > 30 µM
CCC(=O)CCCCCCCCCNC(C)=O | > 30 µM | 19 µM | > 30 µM | > 30 µM | > 30 µM | > 30 µM | > 30 µM | > 30 µM | > 30 µM | > 30 µM | > 30 µM | > 30000 nM | > 30 µM | > 30 µM | > 30 µM

Further lines, with some results ahead:

GI50 (HL-60) | GI50 (Raji) | GI50 (MDA-MB-231) | GI50 (HCT-15) | GI50 (K562) | GI50 (ACHN) | GI50 (PC-3) | GI50 (NCI-H23) | Compound | GI50 (WSUDLCL2) | GI50 (RPMI 8402) | GI50 [1] | GI50 (NUGC-3) | GI50 (U-266) | GI50 [2] | GI50 (NALM-6)
> 30 µM | > 30 µM | 18 µM | 15 µM | > 30 µM | 16 µM | 19 µM | 18 µM | CC(=O)NCCCCCCCCCC(=O)CCO | > 30 µM | > 30 µM | 28 µM | 17000 nM | > 30 µM | 20 µM | > 30 µM
1.3 µM | 26 µM | 0.5 µM | 0.5 µM | 1.5 µM | 0.5 µM | 0.5 µM | 0.5 µM | CC(=O)NCCCCCCCCCC[C@H](O)CO | 0.2 µM | 0.6 µM | 0.1 µM | 400 nM | > 30 µM | 0.6 µM | 1.5 µM
7.9 µM | 0.4 µM | 1.1 µM | 1.1 µM | 11 µM | 1.1 µM | 0.8 µM | 1 µM | CC(=O)CCCCCCCCNC(C)=O | 0.8 µM | 2.5 µM | 0.4 µM | 700 nM | > 30 µM | 1.1 µM | 9.2 µM
0.002 µM | 0.008 µM | 0.077 µM | 0.087 µM | 0.007 µM | 0.081 µM | 0.085 µM | 0.072 µM | COc1cccc2c1C(=O)c1c(O)c3c(c(O)c1C2=O)C[C@@](O)(C(=O)CO)C[C@@H]3O[C@H]1C[C@H](N)[C@H](O)[C@H](C)O1 [DOXORUBICIN HYDROCHLORIDE] | 0.004 µM | 0.01 µM | 0.007 µM | 93 nM | 0.004 µM | 0.08 µM | 0.003 µM
